Data published in patent US5618829A, “Tyrosine kinase inhibitors and benzoylacrylamide derivatives” (Mitsubishi Chemical Corporation, priority 1993, dated 1997).
Where two headings read alike, the source gives them in different places.

How the values were obtained:
EGF receptor = target: T1, EGF receptor (Homo sapiens, UniProt P00533); assay: Tyrosine kinase inhibitory activity (partially purified EGF receptor from A431 cell membrane fraction, RR-SRC peptide substrate); assay type: biochemical; conditions: partially purified EGF receptor from A431 cells, 100 ng EGF, 10 μM γ-32P-ATP, 30 minutes under ice-cooling
T1 construct: The cell membrane fraction, a partially purified EGF receptor, was used as an enzyme source; endogenous in cells; host or cells: A431 (human epidermoid carcinoma), cell membrane fraction
Description: (§1) The compounds of the invention were evaluated their tyrosine kinase inhibitory activities with partially purified EGF (epidermal cell growth factor) receptor preparation and cell growth inhibitory activity with human cancer cells.
Tyrosine Kinase Inhibitory Activity
Tyrosine kinase inhibitory activities of the compounds of the invention were determined as the inhibitory activities of the compounds added into the tyrosine kinase activity assay system.
The method employed is detailed below.
A431 cells were cultured in Dulbecco's modified Eagles medium (DMEM) containing 10% fetal calf serum (FCS) at 37° C. under 5% CO2 atmosphere. The cultured cells were homogenated in a solution containing 10 mM N-2-hydroxyethylpiperazino-N'-2-ethane sulfonate buffer (pH 7.4), 0.25M sucrose, and 0.1 mM EDTA, and centrifuged at 3000 xg for 5 minutes. The supernatant was then centrifuged at 10000 xg for 30 minutes to obtain A431 cell membrane fraction. The cell membrane fraction, a partially purified EGF receptor, was used as an enzyme source. A test compound dissolved in dimethylsulfoxide (DMSO) was added to a reaction mixture containing 15 mM Hepes buffer (pH 7.7), 2 mM MnCl2, 10 μM ZnSO4, 50 μM Na3 VO4 and the partially purified EGF receptor preparation (10-15 μg). […] The mixture was allowed to react under […] for 30 minutes, and the reaction was stopped by addition of 10 mg/ml bovine serum albumin and 20% trichloroacetic acid. The reaction mixture was left to stand under ice-cooling for 30 minutes. The mixture was centrifuged at 5000 xg for two minutes, and an aliquot of the supernatant was adsorbed on P81 phosphocellulose filter. The filter was dipped in 30% aqueous acetic acid for 15 minutes for fixation and then washed with 15% acetic acid. The washing was repeated four times. The radioactivity of ^32 P retained on the phosphocellulose filter was counted with liquid scintillation counter.
Tyrosine kinase inhibitory activity (TKIA) was determined according to the following equation:
TKIA(%)={1-(B-C)/(A-C)}×100
The sympols "A", "B" and "C" represent the radioactivities determined in tyrosine kinase assays with test compounds, without a test compound, and without both a test compound and EGF, respectively.

KB cell = assay: Cancer cell growth inhibitory activity (KB cells, MTT); assay type: cell-based; conditions: Homo sapiens, 72 h, read-out: Inhibitory activity (IC50, μM) Cancer cell growth
Description: as §1
Cancer Cell Growth Inhibitory Activity
Accordingly, the KB cell was used to evaluate the effect of test compounds on the growth of cultured cancer cells.
KB cells were plated on a 96-well dish (2.5×10^3 cell/well) and cultured for 24 hours at 37° C. under 5% CO2 atmosphere in DMEM:F12 (1:1) medium containing 10% FCS, 50 μg/ml penicillin, and 50 μg/ml streptomycin. To the culture medium was added a test compound dissolved in DMSO (DMSO final concentration<0.1%), and the cells were cultured for three days under the same conditions. The test compound was exchanged every 24 hours together with the culture medium.
The amount of living cells were measured by calorimetric determination at wave lengths of 550 nm and 650 nm after developing colour by MTT reagent, in accordance with the method of Michael C.
Cancer cell growth inhibitory activity (CCGIA) was determined according to the following equation.
Simbols "a" and "b" represent the colorimetric values determined in the cancer cell growth assay with and without the test compounds, respectively.

[1] = KB cells, three days, 37° C., MTT

T1 sequence (P00533 25-1210): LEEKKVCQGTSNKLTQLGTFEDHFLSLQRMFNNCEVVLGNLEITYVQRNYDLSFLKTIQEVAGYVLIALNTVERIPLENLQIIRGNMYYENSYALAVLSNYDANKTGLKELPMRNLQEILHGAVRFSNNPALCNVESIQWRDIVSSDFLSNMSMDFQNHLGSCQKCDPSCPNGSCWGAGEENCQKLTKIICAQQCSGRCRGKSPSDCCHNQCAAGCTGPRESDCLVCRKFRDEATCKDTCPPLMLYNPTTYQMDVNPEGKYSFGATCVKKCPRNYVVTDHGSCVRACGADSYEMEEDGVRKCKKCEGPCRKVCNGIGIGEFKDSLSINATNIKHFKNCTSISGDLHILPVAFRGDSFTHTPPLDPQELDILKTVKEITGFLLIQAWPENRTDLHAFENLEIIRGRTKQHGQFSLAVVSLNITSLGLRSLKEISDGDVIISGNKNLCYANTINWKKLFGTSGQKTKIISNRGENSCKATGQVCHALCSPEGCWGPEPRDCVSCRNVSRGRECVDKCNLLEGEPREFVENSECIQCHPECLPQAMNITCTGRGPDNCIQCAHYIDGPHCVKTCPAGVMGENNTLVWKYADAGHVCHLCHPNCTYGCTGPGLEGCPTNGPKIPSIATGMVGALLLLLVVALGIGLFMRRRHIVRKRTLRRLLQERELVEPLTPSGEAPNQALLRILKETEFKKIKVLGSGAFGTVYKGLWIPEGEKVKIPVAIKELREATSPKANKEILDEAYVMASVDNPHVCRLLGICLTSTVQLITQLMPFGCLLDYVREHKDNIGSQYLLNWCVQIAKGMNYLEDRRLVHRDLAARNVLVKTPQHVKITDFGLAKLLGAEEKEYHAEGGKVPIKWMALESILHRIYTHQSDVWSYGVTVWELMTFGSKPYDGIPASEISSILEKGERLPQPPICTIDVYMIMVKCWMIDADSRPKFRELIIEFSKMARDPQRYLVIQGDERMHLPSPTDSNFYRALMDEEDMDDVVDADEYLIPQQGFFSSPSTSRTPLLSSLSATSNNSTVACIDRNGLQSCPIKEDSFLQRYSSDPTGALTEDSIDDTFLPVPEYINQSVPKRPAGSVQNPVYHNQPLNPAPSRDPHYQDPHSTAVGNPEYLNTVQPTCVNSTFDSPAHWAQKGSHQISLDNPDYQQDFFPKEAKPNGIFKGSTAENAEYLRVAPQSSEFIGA

Row | SMILES | IC50 (EGF receptor) [µM] | IC50 (KB cell; KB) [µM] | IC50 (KB cell; [1]) [µM]
1 | COc1ccc(C(=O)/C=C/C(N)=O)cc1OC [Compound 2] | 0.32 | 0.92 | –
2 | COc1ccc(C(=O)/C=C/C(=O)NCc2ccccc2)cc1OC [Compound 19] | 0.79 | 0.97 | –
3 | COc1ccc(C(=O)/C=C/C(=O)NC2CCCCC2)cc1OC [Compound 45] | 1 | 0.22 | –
4 | COc1ccc(C(=O)/C=C/C(=O)Nc2ccccc2)cc1 [Compound 58] | 2.2 | 0.34 | –
5 | COc1ccc(C(=O)/C=C/C(=O)Nc2ccccc2)cc1OC [Compound 59] | 0.54 | 0.45 | –
6 | O=C(/C=C/C(=O)c1ccc(O)c(O)c1)Nc1ccccc1 [Compound 60] | 1 | 1.85 | –
7 | COc1cc(C(=O)/C=C/C(=O)Nc2ccccc2)ccc1O [Compound 61] | 1.5 | – | 2
8 | COc1cc(C(=O)/C=C/C(=O)Nc2ccccc2)ccc1OC(F)F [Compound 64] | 1.5 | 1.1 | –
9 | COc1cc(C(=O)/C=C/C(=O)Nc2ccccc2)ccc1OCc1ccccc1 [Compound 67] | 13 | 0.58 | –
10 | COc1ccc(C(=O)/C=C/C(=O)Nc2ccccc2Cl)cc1OC [Compound 71] | 1.2 | 1.2 | –
11 | COc1ccc(C(=O)/C=C/C(=O)Nc2cccc(Cl)c2)cc1OC [Compound 74] | 0.76 | – | 0.7
12 | O=C(/C=C/C(=O)c1ccc(O)c(O)c1)Nc1cccc(Cl)c1 [Compound 75] | 4.3 | 1.25 | –
13 | COc1ccc(C(=O)/C=C/C(=O)Nc2cccc(C)c2)cc1OC [Compound 83] | 0.81 | 0.95 | –
14 | COc1ccc(C(=O)/C=C/C(=O)NC(=O)c2ccccc2)cc1OC [Compound 110] | 0.91 | 11.5 | –
